29 compounds from US20190345138A1, “HETEROCYCLIC AMIDES AS KINASE INHIBITORS” (GlaxoSmithKline Intellectual Property Development Limited, priority 2016, published 2019) can be followed below.

Where “and” joins values, the source holds several entries; their conditions need not be identical. Equal values may be shown once.

The target of the first assay is T1, RIP1 kinase (Homo sapiens, UniProt Q13546).
T1 sequence (Q13546 1-375 limits assumed): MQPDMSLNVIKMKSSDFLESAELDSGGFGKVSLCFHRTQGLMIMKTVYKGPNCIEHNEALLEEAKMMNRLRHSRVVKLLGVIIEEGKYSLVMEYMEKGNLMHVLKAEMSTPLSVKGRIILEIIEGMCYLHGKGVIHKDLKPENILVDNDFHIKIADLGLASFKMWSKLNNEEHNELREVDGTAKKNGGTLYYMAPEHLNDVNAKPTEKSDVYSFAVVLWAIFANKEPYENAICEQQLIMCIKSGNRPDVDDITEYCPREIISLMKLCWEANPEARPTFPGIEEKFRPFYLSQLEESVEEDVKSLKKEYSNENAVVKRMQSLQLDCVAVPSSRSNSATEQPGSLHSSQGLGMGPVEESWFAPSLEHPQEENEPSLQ
The assay is described as follows: fluorescent polarization based binding assay. As to conditions: mean of a minimum of 2 experiments. The source says: A fluorescent polarization based binding assay was used to assess the activity of the compounds of this invention, the details of which are disclosed in International Patent Appln. No. PCT/IB2014/059004, now, International Patent Appln. Pub.
Consider `COc1cnc(N2CCC(C(=O)N3N=CCC3c3ccccc3)CC2)nc1` (racemic) [Example 7, (1-(5-methoxypyrimidin-2-yl)piperidin-4-yl)(5-phenyl-4,5-dihydro-1H-pyrazol-1-yl)methanone], for which the IC50 was 1 to 31.6 nM.

Take `N#Cc1cnc(N2CCC(C(=O)N3N=CC[C@H]3c3ccccc3)CC2)cn1` [Example 40, (S)-5-(4-(5-phenyl-4,5-dihydro-1H-pyrazole-1-carbonyl)piperidin-1-yl)pyrazine-2-carbonitrile]: the IC50 was 1 to 31.6 nM and 1 to 10 nM.

Regarding `O=C(C1CCN(c2ccn3nccc3n2)CC1)N1N=CC[C@H]1c1ccccc1` [Example 21, (S)-(5-phenyl-4,5-dihydro-1H-pyrazol-1-yl)(1-(pyrazolo[1,5-a]pyrimidin-5-yl)piperidin-4-yl)methanone], the IC50 was 1 to 31.6 nM and 1 to 10 nM.

`CCOC(=O)c1cnc(N2CCC(C(=O)N3N=CC[C@H]3c3cc(F)cc(F)c3)CC2)o1` [Example 107, (S)-ethyl 2-(4-(5-(3,5-difluorophenyl)-4,5-dihydro-1H-pyrazole-1-carbonyl)piperidin-1-yl)oxazole-5-carboxylate] had an IC50 of 1 to 31.6 nM.

`N#Cc1cccc([C@@H]2CC=NN2C(=O)C2CCN(c3ccn4nccc4n3)CC2)c1` [Example 62, (S)-3-(1-(1-(pyrazolo[1,5-a]pyrimidin-5-yl)piperidine-4-carbonyl)-4,5-dihydro-1H-pyrazol-5-yl)benzonitrile]: the IC50 was 1 to 31.6 nM.

Take `O=C(C1CCN(c2nccc(-c3nn[nH]n3)n2)CC1)N1N=CC[C@H]1c1ccccc1` [Example 148, (S)-(1-(4-(2H-tetrazol-5-yl)pyrimidin-2-yl)piperidin-4-yl)(5-phenyl-4,5-dihydro-1H-pyrazol-1-yl)methanone]: the IC50 was 1 to 31.6 nM and 1 to 10 nM.

`CCOC(=O)c1coc(N2CCC(C(=O)N3N=CC[C@H]3c3ccccc3)CC2)n1` [Example 65, (S)-ethyl 2-(4-(5-phenyl-4,5-dihydro-1H-pyrazole-1-carbonyl)piperidin-1-yl)oxazole-4-carboxylate] showed an IC50 of 1 to 31.6 nM.

On to `CSc1nccc(N2CCC(C(=O)N3N=CC[C@H]3c3cncc(F)c3)CC2)n1` [Example 114, (S)-(5-(5-fluoropyridin-3-yl)-4,5-dihydro-1H-pyrazol-1-yl)(1-(2-(methylthio)pyrimidin-4-yl)piperidin-4-yl)methanone], for which the IC50 was 1 to 31.6 nM.

In turn, `NC(=O)c1cnc(N2CCC(C(=O)N3N=CC[C@H]3c3ccccc3)CC2)cn1` [Example 63, (S)-5-(4-(5-phenyl-4,5-dihydro-1H-pyrazole-1-carbonyl)piperidin-1-yl)pyrazine-2-carboxamide] gave an IC50 of 1 to 31.6 nM.

In turn, `COc1cc(N2CCC(C(=O)N3N=CC[C@H]3c3cncc(F)c3)CC2)ncn1` [Example 113, (S)-(5-(5-fluoropyridin-3-yl)-4,5-dihydro-1H-pyrazol-1-yl)(1-(6-methoxypyrimidin-4-yl)piperidin-4-yl)methanone] showed an IC50 of 1 to 31.6 nM.

Take `NC(=O)COc1nc(N2CCC(C(=O)N3N=CC[C@H]3c3ccccc3)CC2)ncc1F` [Example 167, (S)-2-((5-fluoro-2-(4-(5-phenyl-4,5-dihydro-1H-pyrazole-1-carbonyl)piperidin-1-yl)pyrimidin-4-yl)oxy)acetamide]: the IC50 was 1 to 31.6 nM.

`CC(=O)Nc1cc(N2CCC(C(=O)N3N=CC[C@H]3c3cc(F)cc(F)c3)CC2)ncn1` [Example 120, (S)-N-(6-(4-(5-(3,5-difluorophenyl)-4,5-dihydro-1H-pyrazole-1-carbonyl)piperidin-1-yl)pyrimidin-4-yl)acetamide] showed an IC50 of 1 to 31.6 nM.

`COC(=O)c1cnc(N2CCC(C(=O)N3N=CC[C@H]3c3ccccc3)CC2)nc1` [Example 10, (S)-methyl 2-(4-(5-phenyl-4,5-dihydro-1H-pyrazole-1-carbonyl)piperidin-1-yl)pyrimidine-5-carboxylate] had an IC50 of 1 to 31.6 nM.

As for `NC(=O)c1coc(N2CCC(C(=O)N3N=CC[C@H]3c3ccccc3)CC2)n1` [Example 136, (S)-2-(4-(5-phenyl-4,5-dihydro-1H-pyrazole-1-carbonyl)piperidin-1-yl)oxazole-4-carboxamide], the IC50 is 1 to 31.6 nM.

`O=C(C1CCN(c2nc(=O)c3cn[nH]c3[nH]2)CC1)N1N=CC[C@H]1c1ccccc1` [Example 37, (S)-6-(4-(5-phenyl-4,5-dihydro-1H-pyrazole-1-carbonyl)piperidin-1-yl)-1H-pyrazolo[3,4-d]pyrimidin-4(7H)-one] showed an IC50 of 1 to 31.6 nM.

In turn, `O=C1NCC[C@@H]1c1nc(N2CCC(C(=O)N3N=CC[C@H]3c3cncc(F)c3)CC2)ncc1F` [Example 166, (R)-3-(5-fluoro-2-(4-((S)-5-(5-fluoropyridin-3-yl)-4,5-dihydro-1H-pyrazole-1-carbonyl)piperidin-1-yl)pyrimidin-4-yl)pyrrolidin-2-one] showed an IC50 of 1 to 31.6 nM.

In the case of `O=C(C1CCN(c2ccn3nccc3n2)CC1)N1N=CC[C@H]1c1cc(F)cc(F)c1` [Example 90, (S)-(5-(3,5-difluorophenyl)-4,5-dihydro-1H-pyrazol-1-yl)(1-(pyrazolo[1,5-a]pyrimidin-5-yl)piperidin-4-yl)methanone], the IC50 is 1 to 31.6 nM and 1 to 10 nM.

With `O=C(C1CCN(c2ncc(F)c(OCc3nn[nH]n3)n2)CC1)N1N=CC[C@H]1c1ccccc1` [Example 154, (S)-(1-(4-((2H-tetrazol-5-yl)methoxy)-5-fluoropyrimidin-2-yl)piperidin-4-yl)(5-phenyl-4,5-dihydro-1H-pyrazol-1-yl)methanone], the IC50 is 1 to 31.6 nM and 1 to 10 nM.

Compound `NC(=O)c1ccc(N2CCC(C(=O)N3N=CC[C@H]3c3ccccc3)CC2)nc1` [Example 30, (S)-6-(4-(5-phenyl-4,5-dihydro-1H-pyrazole-1-carbonyl)piperidin-1-yl)nicotinamide] gave an IC50 of 1 to 31.6 nM.

`COc1nccc(N2CCC(C(=O)N3N=CC[C@H]3c3cccc(C#N)c3)CC2)n1` [Example 75, (S)-3-(1-(1-(2-methoxypyrimidin-4-yl)piperidine-4-carbonyl)-4,5-dihydro-1H-pyrazol-5-yl)benzonitrile] showed an IC50 of 1 to 31.6 nM.

The test system of another assay is human monocytic leukemia U937 cells. The assay is described as follows: necroptosis assay in U937 cells. It is filed as cell-based. Conditions: Homo sapiens, U-937, U937 cells; viability by cellular ATP (Cell Titer-Glo); read-out: pIC50, inhibited necrosis in U937 cells (converted). How it is done: The efficacy of RIP1 inhibitors can be tested […] in vitro using a human monocytic leukemia U937 or mouse L929 fibrosarcoma cells in a necroptosis assay. As determined using the method described in S. He et al., Cell, 137(6):1100-1111 (2009) and International Patent Appln. No. PCT/IB2014/059004, now, International Patent Appln. Pub.
Viability was measured by quantitating cellular levels of ATP using the Cell Titer-Glo kit. All data are means±standard deviation of the mean.
(Cellular ATP, detected with luciferase, serves as a proxy for viable cell number.)
Regarding `COc1cnc(N2CCC(C(=O)N3N=CCC3c3ccccc3)CC2)nc1` (racemic) [Example 7, (1-(5-methoxypyrimidin-2-yl)piperidin-4-yl)(5-phenyl-4,5-dihydro-1H-pyrazol-1-yl)methanone], the IC50 was 1 to 100 nM.

Regarding `N#Cc1cnc(N2CCC(C(=O)N3N=CC[C@H]3c3ccccc3)CC2)cn1` [Example 40, (S)-5-(4-(5-phenyl-4,5-dihydro-1H-pyrazole-1-carbonyl)piperidin-1-yl)pyrazine-2-carbonitrile], the IC50 is 1 to 100 nM.

For the compound `O=C(C1CCN(c2ccn3nccc3n2)CC1)N1N=CC[C@H]1c1ccccc1` [Example 21, (S)-(5-phenyl-4,5-dihydro-1H-pyrazol-1-yl)(1-(pyrazolo[1,5-a]pyrimidin-5-yl)piperidin-4-yl)methanone], the IC50 is 1 to 100 nM.

On to `N#Cc1ccnc(N2CCC(C(=O)N3N=CCC3c3ccccc3)CC2)n1` (racemic) [Example 5, 2-(4-(5-phenyl-4,5-dihydro-1H-pyrazole-1-carbonyl)piperidin-1-yl)pyrimidine-4-carbonitrile], for which the IC50 is 1 to 100 nM.

Consider `Cc1nnc(-c2cc(N3CCC(C(=O)N4N=CC[C@H]4c4ccccc4)CC3)ncn2)o1` [Example 129, (S)-(1-(6-(5-methyl-1,3,4-oxadiazol-2-yl)pyrimidin-4-yl)piperidin-4-yl)(5-phenyl-4,5-dihydro-1H-pyrazol-1-yl)methanone], for which the IC50 was 1 to 100 nM.

In the case of `O=C(C1CCN(c2nccc(-c3ccccc3)n2)CC1)N1N=CCC1c1ccccc1` (racemic) [Example 4, (5-phenyl-4,5-dihydro-1H-pyrazol-1-yl)(1-(4-phenylpyrimidin-2-yl)piperidin-4-yl)methanone], the IC50 was 1 to 100 nM.

On to `N#Cc1ccc(N2CCC(C(=O)N3N=CC[C@H]3c3cc(F)cc(F)c3)CC2)nn1` [Example 94, (S)-6-(4-(5-(3,5-difluorophenyl)-4,5-dihydro-1H-pyrazole-1-carbonyl)piperidin-1-yl)pyridazine-3-carbonitrile], for which the IC50 was 1 to 100 nM.

For `N#Cc1cc(N2CCC(C(=O)N3N=CC[C@H]3c3cncc(F)c3)CC2)ncn1` [Example 111, (S)-6-(4-(5-(5-fluoropyridin-3-yl)-4,5-dihydro-1H-pyrazole-1-carbonyl)piperidin-1-yl)pyrimidine-4-carbonitrile], the IC50 is 1 to 100 nM.

On to `O=C1NCCC1c1nc(N2CCC(C(=O)N3N=CC[C@H]3c3cncc(F)c3)CC2)ncc1F` (stereo partly drawn) [Example 151, 3-(5-fluoro-2-(4-((S)-5-(5-fluoropyridin-3-yl)-4,5-dihydro-1H-pyrazole-1-carbonyl)piperidin-1-yl)pyrimidin-4-yl)pyrrolidin-2-one], for which the IC50 was 1 to 100 nM.

`O=C(NC1CC1)c1ccnc(N2CCC(C(=O)N3N=CC[C@H]3c3ccccc3)CC2)n1` [Example 125, (S)—N-cyclopropyl-2-(4-(5-phenyl-4,5-dihydro-1H-pyrazole-1-carbonyl)piperidin-1-yl)pyrimidine-4-carboxamide]: the IC50 is 1 to 100 nM.

Regarding `N#Cc1cnc(N2CCC(C(=O)N3N=CC[C@H]3c3cc(F)cc(F)c3)CC2)cn1` [Example 95, (S)-5-(4-(5-(3,5-difluorophenyl)-4,5-dihydro-1H-pyrazole-1-carbonyl)piperidin-1-yl)pyrazine-2-carbonitrile], the IC50 is 1 to 100 nM.

Turning to `NC(=O)c1ncnc(N2CCC(C(=O)N3N=CC[C@H]3c3cncc(F)c3)CC2)c1F` [Example 160, (S)-5-fluoro-6-(4-(5-(5-fluoropyridin-3-yl)-4,5-dihydro-1H-pyrazole-1-carbonyl)piperidin-1-yl)pyrimidine-4-carboxamide], the IC50 is 1 to 100 nM.
